Experimental data taken from US20240008487A1, “FUNGICIDAL COMPOSITIONS” (SYNGENTA CROP PROTECTION AG, priority 2020, published 2024).

Key:
Conditions in all cases: alone
Septoria tritici = Septoria tritici (Leaf Blotch) liquid culture growth inhibition; format: cell-based
Protocol: (§1) Conidia of the fungus from cryogenic storage were directly mixed into nutrient broth (PDB potato dextrose broth). A DMSO solution of the test compounds was placed into a microtiter plate (96-well format) and the nutrient broth containing the fungal spores was added to it. The test plates were incubated at 24 C and the inhibition of growth was determined photometrically after 72 hrs.

[1] = tested on: Glomerella lagenarium syn. Colletotrichum lagenarium; assay: Glomerella lagenarium syn. Colletotrichum lagenarium (Anthracnose) liquid culture growth inhibition; format: cell-based
Protocol: as §1, with “hrs at 620 nm.” for “hrs.”

Phakopsora pachyrhizi = Phakopsora pachyrhizi (Soybean Rust) on leaf disks of treated soybean plants; format: in vivo
Protocol: Whole soybean plants are treated with the recited active ingredients 4 weeks after planting. 1 day after spraying leaf disks are cut from the first trifoliate leaf. Five repetitions at each rate are conducted. The leaf disks are inoculated with Phakopsora pachyrhizi (Asian soybean rust) one day after treatment. Evaluation of the leaf disks is conducted 11 to 14 days after inoculation and the activity is derived from the relation of the treated vs untreated, infested check. The rates of the active ingredients used are given in Table as g active ingredient (a.i.)/ha.

Corynespora cassiicola = Corynespora cassiicola (Target Leaf Spot) liquid culture growth inhibition; format: cell-based
Protocol: as §1, with “3-4 days at 620 nm.” for “72 hrs.”

Septoria glycines = Septoria glycines (Brown Spot) liquid culture growth inhibition; format: cell-based
Protocol: as §1, with “visually” for “photometrically”

Botrytis cinerea = Botrytis cinerea (Gray Mould) liquid culture growth inhibition; format: cell-based
Protocol: as §1

Sclerotinia sclerotiorum = Sclerotinia sclerotiorum (White Mold) liquid culture growth inhibition; format: cell-based
Protocol: as §1, with “Mycelial fragments” for “Conidia”, “fungus prepared” for “fungus”, “a fresh liquid culture” for “cryogenic storage”, “hrs at 620 nm” for “hrs.”

CNC(=O)C(F)(F)c1ccc(-c2noc(C(F)(F)F)n2)cc1 [2,2-Difluoro-N-methyl-2-[4-[5-(trifluoromethyl)-1,2,4-oxadiazol-3-yl]phenyl]acetamide]
Observed Activity (Septoria tritici; 20 ppm): 20% | Observed Activity ([1]; 0.08 ppm): 20% | Observed Activity (Phakopsora pachyrhizi; 0.3 g/ha): 0% | Observed Activity (Phakopsora pachyrhizi; 0.6 g/ha): 4%

N#Cc1ccc(Oc2ccc(C(F)(F)C(O)(Cn3nc[nH]c3=S)c3ccc(F)cc3F)nc2)cc1 (stereo not shown) [4-[[6-[2-(2,4-Difluorophenyl)-1,1-difluoro-2-hydroxy-3-(5-thioxo-4H-1,2,4-triazol-1-yl)propyl]-3-pyridyl]oxy]benzonitrile]
Observed Activity (Phakopsora pachyrhizi; 30 g/ha): 0% | Observed Activity (Phakopsora pachyrhizi; 60 g/ha): 10% | Observed Activity (Corynespora cassiicola; 0.5 ppm): 0% | Observed Activity (Corynespora cassiicola; 1 ppm): 0% | Observed Activity (Corynespora cassiicola; 2 ppm): 20% | Observed Activity (Septoria glycines; 1 ppm): 50% | Observed Activity (Septoria glycines; 2 ppm): 70%

CCC(=O)Oc1c(OC)ccnc1C(=O)N[C@@H](C)C(=O)O[C@@H](C)[C@@H](C)c1ccccc1C [Compound A-1.2, [(1S,2S)-1-methyl-2-(o-tolyl)propyl] (2S)-2-[(4-methoxy-3-propanoyloxy-pyridine-2-carbonyl)amino]propanoate]
Observed Activity (Botrytis cinerea; 2 ppm): 70% | Observed Activity (Sclerotinia sclerotiorum; 0.02 ppm): 0% | Observed Activity (Sclerotinia sclerotiorum; 0.1 ppm): 0% | Observed Activity (Sclerotinia sclerotiorum; 0.2 ppm): 0% | Observed Activity (Sclerotinia sclerotiorum; 2 ppm): 70% | Observed Activity (Septoria tritici; 0.02 ppm): 20% | Observed Activity (Septoria tritici; 0.03 ppm): 50% | Observed Activity (Septoria tritici; 0.06 ppm): 70% | Observed Activity (Septoria tritici; 0.1 ppm): 70% | Observed Activity ([1]; 0.02 ppm): 0% | Observed Activity ([1]; 0.1 ppm): 0% | Observed Activity ([1]; 0.2 ppm): 0% | Observed Activity (Phakopsora pachyrhizi; 0.3 g/ha): 18% | Observed Activity (Phakopsora pachyrhizi; 0.6 g/ha): 55% | Observed Activity (Corynespora cassiicola; 0.06 ppm): 0% | Observed Activity (Septoria glycines; 0.03 ppm): 20% | Observed Activity (Septoria glycines; 0.06 ppm): 20%

O=C(Nc1ccccc1F)c1ccc(-c2noc(C(F)(F)F)n2)cc1 [N-(2-fluorophenyl)-4-[5-(trifluoromethyl)-1,2,4-oxadiazol-3-yl]benzamide]
Observed Activity (Septoria tritici; 2.22 ppm): 0% | Observed Activity (Septoria tritici; 6.66 ppm): 0% | Observed Activity (Septoria tritici; 20 ppm): 0% | Observed Activity ([1]; 2.22 ppm): 0% | Observed Activity ([1]; 6.66 ppm): 0% | Observed Activity ([1]; 20 ppm): 0% | Observed Activity (Phakopsora pachyrhizi; 0.3 g/ha): 0% | Observed Activity (Phakopsora pachyrhizi; 0.6 g/ha): 35%

CNC(=S)c1ccc(-c2noc(C(F)(F)F)n2)cc1 [N-methyl-4-[5-(trifluoromethyl)-1,2,4-oxadiazol-3-yl]benzenecarbothioamide]
Observed Activity (Botrytis cinerea; 2.22 ppm): 0% | Observed Activity (Botrytis cinerea; 6.66 ppm): 20% | Observed Activity (Botrytis cinerea; 20 ppm): 70% | Observed Activity (Sclerotinia sclerotiorum; 20 ppm): 20% | Observed Activity (Septoria tritici; 2.22 ppm): 0% | Observed Activity (Septoria tritici; 6.66 ppm): 70% | Observed Activity (Septoria tritici; 20 ppm): 90% | Observed Activity ([1]; 0.08 ppm): 70% | Observed Activity (Phakopsora pachyrhizi; 0.3 g/ha): 6% | Observed Activity (Phakopsora pachyrhizi; 0.6 g/ha): 74%

CCN(C)C=Nc1cc(C)c(Oc2ccccc2)cc1Cl [N′-(2-chloro-5-methyl-4-phenoxy-phenyl)-N-ethyl-N-methyl-formamidine]
Observed Activity (Septoria tritici; 0.625 ppm): 20% | Observed Activity (Phakopsora pachyrhizi; 1.5 g/ha): 71% | Observed Activity (Phakopsora pachyrhizi; 3 g/ha): 71% | Observed Activity (Septoria glycines; 0.625 ppm): 70%

CCN(C)C=Nc1cc(C)c(Oc2ccccc2F)cc1Cl [N′-[2-chloro-4-(2-fluorophenoxy)-5-methyl-phenyl]-N-ethyl-N-methyl-formamidine]
Observed Activity (Phakopsora pachyrhizi; 1.5 g/ha): 46% | Observed Activity (Phakopsora pachyrhizi; 3 g/ha): 80%
